In patent US20260240819A1, “KAT6 INHIBITOR METHODS AND COMBINATIONS FOR CANCER TREATMENT” (Pfizer Inc., priority 2020, published 2026):
pIC50: −log10 of the molar value. Blank lines part the entries; values can stand above or below the compound they belong to.

Key:
T47D cells [1] = experiment: Proliferation colony formation assay (SRB stain); assay type: cell-based
Protocol: (§1) T47D, ZR-75-1, or MCF7 cells were seeded into 6-well tissue culture plates at 10% seeding confluence (100,000-150,000 cells per well). After allowing 18-24 hours for the cells to attach to the wells, growth media was aspirated and discarded and new growth media containing 0-20 μM of either COMPOUND A or COMPOUND B was added in 2-fold increments of descending concentration from 20 μM to the cells (proliferation assay). In parallel, seeded cultures with the same titration of the KAT6 inhibitors was added to the cells. 500 nM palbociclib was also added for each concentration of the KAT6 inhibitors (palbociclib recovery assay). The cultures were incubated 12-14 days and treated with these inhibitors/inhibitor combinations. Growth media containing the inhibitors was replaced on the cell cultures every 3-4 days (twice per week).
For the KAT6 inhibitor treated T47D cultures (proliferation assay), after 12 days the vehicle (DMSO) treated cultures were >90% confluent and the cell cultures were SRB stained as described in Example 3. The stained 6-well plates were scanned using an Epson Perfection V600 Photo Scanner and Epson Scan version 3.9.2.0 software. To quantitate SRB staining in each 6-well culture, the cultures were destained with 2 mL 10 mM Tris pH 7.5 per well and the absorbance at 565 nm (O.D. 565) of the released stain was measured using a SpectraMax Plus plate reader and SoftMaxPro 5.4.3 software. Inhibition of T47D cell proliferation by both COMPOUND A and COMPOUND B were equivalent with 50% proliferation inhibition observed with 10 μM of the KAT6 inhibitors (FIGS. 8A and 8C).
Cells were plated at low density into 6-well culture dishes and allowed to attach overnight at 37° C., 5% CO2. The next day, in parallel to the proliferation set, palbociclib was added at a final concentration of […] to another set of plates, which served as the set for palbociclib recovery. To both proliferation and palbociclib recovery plates, DMSO or KAT6 inhibitor was added into each well at increasing doses. Medium and KAT6 inhibitor were refreshed twice a week. Cells were cultured for about two weeks of drug treatment until the DMSO-treated wells reached confluency. At the end of treatment, cells were washed once with phosphate-buffered saline and were fixed and stained with SRB for visualization followed by quantification. […] Wells were fixed and stained with SRB for visualization followed by quantification. To quantify the stain, stained cells were dissolved in 2 mL of 10 mM Tris-HCl, pH 7.5 and shaken for 10 min on a shaker. Samples were then diluted with 10 mM Tris-HCl, pH 7.5, transferred to a 96-well microtiter plate in a volume of 100 μL and read on SpetraMax at 565 nm.

ZR-75-1 cells = experiment: Proliferation colony formation assay (SRB stain); assay type: cell-based
Protocol: as §1
For the ZR-75-1 and MCF7 experiments, only COMPOUND A was tested. For the single agent treated ZR-75-1 cultures the vehicle treated cultures were >90% confluent after 12 days of treatment. These cultures were SRB stained, scanned, and destained/measured as described above. […] After 22 days of recovery, the ZR-75-1 cultures that had been treated with single agent 500 nM palbociclib were >90% confluent and these palbociclib recovery assay cultures were SRB stained, scanned, and destained/measured as described above.
Cells were plated at low density into 6-well culture dishes and allowed to attach overnight at 37° C., 5% CO2. […] At the end of treatment, cells were washed once with phosphate-buffered saline and were fixed and stained with SRB for visualization followed by quantification. […] Wells were fixed and stained with SRB for visualization followed by quantification. To quantify the stain, stained cells were dissolved in 2 mL of 10 mM Tris-HCl, pH 7.5 and shaken for 10 min on a shaker. Samples were then diluted with 10 mM Tris-HCl, pH 7.5, transferred to a 96-well microtiter plate in a volume of 100 μL and read on SpetraMax at 565 nm.

[2] = tested on: estradiol response genes in T47D cells; experiment: RNA-Seq gene set enrichment analysis; assay type: cell-based; settings: 20 nM, 6-day treatment, GSEA
Protocol: The following day, cells were treated with vehicle control (DMSO) or COMPOUND C at 20 nM concentration. Media and compounds were refreshed three days later for a total of 6-day treatment. At the end of the 6-day treatment, cells were harvested by trypsinization and lysed in Buffer RLT (Qiagen, Cat No./ID 79216)^+β-mercaptoethanol. RNA lysates were submitted for RNA sequencing (“RNA-Seq”) (WuXi NextCODE®).
RNA-Seq data analysis: Adapter sequences were trimmed off from the Illumina raw reads, provided by WuXi NextCODE®, using Trimmomatic (v0.36) for paired-end reads, and low-quality reads were filtered out. Reads remaining after the pre-processing step were mapped to the reference genome hg38 using STAR (v2.6.0c). Gene level expression was quantitated as expected counts and transcripts per million (TPM) using “rsem-calculate-expression” of RSEM (v1.3.0) with default parameters. Differential expression analysis of robustly expressed genes (max expression across samples >=10) was performed using DESeq2 (v1.18.1) package. Gene set enrichment analysis (GSEA, v3.0) was conducted using GseaPreranked option. Genes were ranked based on signedlog10pval. Gene set collections (c2.all.v6.1) from Molecular Signatures Database (MSigDB) were used in this analysis.

[3] = tested on: ERα and Cyclin D1 in T47D cells; experiment: Western blot after KAT6 inhibitor dose titration; assay type: cell-based; settings: increasing concentrations, 14 days
Protocol: Cells were plated at 10,000 cells per well into 6-well culture dishes and allowed to attach overnight at 37° C., 5% CO2. The next day, either COMPOUND C or COMPOUND D was added to wells at increasing concentrations, in addition to DMSO as vehicle control. Cells were cultured for 14 days with medium and KAT6 inhibitor refreshed twice a week (every 3-4 days). At the end of drug treatment, one million cells were collected via trypsinization for protein lysates. Cells were lysed in 100 μL 1× LDS buffer diluted from 4× LDS buffer (ThermoFisher catalog #NP0007) with reducing agent (ThermoFisher catalog #NP0009). The lysates were subsequently sonicated and loaded onto a NuPAGE 4-12% Bis-Tris gel (ThermoFisher, catalog #NP0321BOX) followed by electrophoresis. Gels were then transferred onto a nitrocellulose membrane (iBlot2, ThermoFisher). Membranes were blocked and incubated overnight at 4° C. with following antibodies: anti-ERα (D8H8) Rabbit mAb (#8644, Cell Signaling) and anti-β-actin (8H10D10) mouse mAb (Cell Signaling, #3700S). […]

T47D cells [4] = experiment: Palbociclib growth arrest and recovery, cell counts; assay type: cell-based; settings: 500 nM palbociclib
Protocol: T47D and MCF7 were confirmed as ER+ breast cancer cell lines using short tandem repeat (“STR”) testing (ATCC STR profiling service). […] After allowing 18-24 hours for the cells to attach to the plates, 500 nM palbociclib was added to each culture. Growth media and palbociclib was refreshed twice per week (every 3-4 days). […] For T47D cultures, the cells were suspended by trypsinization from triplicate cultures on days 1, 14, and 24 of palbociclib treatment and the cell density of each suspension was measured using a Vi-Cell XR cell counter. In a separate experiment, three additional T47D cultures were treated for 14 days with 500 nM palbociclib, then the palbociclib was washed off the cells and the cells were allowed to recover for 10 days. After 10 days of recovery, the cells were suspended by trypsinization and the cell density of each suspension was measured by cell counter.

MCF7 cells = experiment: as above; assay type: cell-based; settings: MCF7, 500 nM palbociclib
Protocol: T47D and MCF7 were confirmed as ER+ breast cancer cell lines using short tandem repeat (“STR”) testing (ATCC STR profiling service). […] After 6 and 14 days of palbociclib treatment, the cells in each well were suspended by trypsinization and cell densities were measured by cell counter. For the additional MCF7 cultures that were treated, in parallel, for either 6 or 14 days with 500 nM palbociclib, the palbociclib was washed off the cells and they were allowed 7-8 days to recover. After this recovery period, the cells were suspended by trypsinization and the cell densities of each suspension were measured. Similar to the T47D cells, palbociclib treatment stably arrested MCF7 cells for up to 14 days of treatment (FIG. 1B). However, after removing palbociclib from the MCF7 cultures treated for either 6 or 14 days, the cells readily re-entered the cell cycle and proliferated.

CAMA1 cells = experiment: Profiling of the response of CAMA1 to palbociclib; assay type: cell-based
[5] = tested on: ERα protein in MCF7 cells; experiment: Western blot after palbociclib treatment; assay type: cell-based; settings: MCF7, 500 nM palbociclib, 8 days
Protocol: (§2) Cells were seeded into 6-well culture plates and allowed to attach overnight at 37° C., 5% CO2. […] Medium was refreshed every 3 days. At 3, 6 and 8 days of treatment, cells were harvested for protein and RNA lysates.

[6] = tested on: ERα protein in T47D cells; experiment: Western blot after palbociclib treatment; assay type: cell-based; settings: 500 nM palbociclib, 8 days
Protocol: as §2

[7] = tested on: ER+ breast cancer PDX model ST340; experiment: PDX tumor growth inhibition study; assay type: in vivo, female athymic nude mice; settings: doses per Table 7; for % TGI Delta: PDX ST340, day 21, compared to Vehicle
Protocol: (§3) Combination studies with palbociclib, fulvestrant and the KAT6 inhibitor, Compound E (KAT6i), were performed in two ER+ breast cancer PDX models: ST340 and ST941. ST340 was wildtype for ESR1. […] Both studies were conducted by XenoSTART (San Antonio, Texas), where 6-12 week-old female athymic nude mice (JAX, stock #007850) were subcutaneously implanted with ~70 mg tumor fragments. Animals were supplemented with exogenous estradiol ad libitum via drinking water throughout the duration of the studies. Tumor measurements and animal weights were captured twice per week, and animals were stratified and enrolled into the study when the mean tumor volume (TV, formula: width^2×length×0.5) reached 150-300 mm^3.
(§4) Each study contained eight treatment groups of n=10 animals per group. The groups were as follows: 1) Vehicle (5% DMSO/40% PEG300/55% 1×PBS), 2) Compound E, 3) palbociclib, 4) fulvestrant, 5) palbociclib+fulvestrant, 6) Compound E +fulvestrant, 7) Compound E+palbociclib, and 8) Compound E+palbociclib+fulvestrant. Animals remained on study and were continued on treatments until the mean tumor volume of each group reached ~1500 mm^3. At that point, the final dose was administered, animals were sacrificed, and terminal samples were collected. Blood microsamples were collected from each group for pharmacokinetics (PK) analysis at 0, 3, and 7 hrs (n=3/timepoint) on day 14 of dosing and again on the terminal day of dosing.
(§5) Analysis of covariance (ANCOVA) was used to determine statistical significance when comparing percent TGI between groups. Changes in bodyweights were calculated in relation to starting bodyweights at study initiation (day 0 of treatment).

[8] = Bodyweight and health monitoring, PDX ST340 study; assay type: in vivo, female athymic nude mice; settings: relative to day 0
Protocol: as §3, §4, §5

[9] = Bodyweight and health monitoring, PDX ST941 study; assay type: in vivo, female athymic nude mice; settings: relative to day 0
Protocol: as §3, §4, §5

Compound: COc1cccc(OC)c1S(=O)(=O)Nc1noc2cc(Cn3cccn3)cc(OC)c12 [COMPOUND C, 2,6-dimethoxy-N-{4-methoxy-6-[(1H-pyrazol-1-yl)methyl]-1,2-benzoxazol-3-yl}benzene-1-sulfonamide]
Kind of effect on cell growth (T47D cells [1]; dose titration): cytostatic
Maximal reduction of growth (T47D cells [1]; single agent, about two weeks): about 40%
pIC50 (ZR-75-1 cells; Homo sapiens, ZR-75-1, ZR75-1, single agent, about two weeks, read-out: Concentration giving 50% growth inhibition): ~8.41
Kind of effect on cell growth (ZR-75-1 cells; ZR75-1, dose titration): strong dose-dependent cytotoxic effect
NES (Normalized Enrichment Score), estradiol-induced genes [2]: −9,92
NES (Normalized Enrichment Score), estradiol-repressed genes [2]: 6.27
ERα and Cyclin D1 protein [3]: dose-dependent depletion

Day 21 mean change in bodyweight [8]: −2%
Maximum mean bodyweight loss [8]: −3%
Day 17 mean change in bodyweight [9]: −1%
Maximum mean bodyweight loss [9]: −3%
Compound: CC(=O)c1c(C)c2cnc(Nc3ccc(N4CCNCC4)cn3)nc2n(C2CCCC2)c1=O [Palbociclib, 6-acetyl-8-cyclopentyl-5-methyl-2-(5-piperazin-1-yl-pyridin-2-ylamino)-8H-pyrido[2,3-d]pyrimidin-7-one]
Effect on cell cycle (T47D cells [4]): complete cell cycle arrest
Reversibility of growth arrest (T47D cells [4]; after withdrawal): reversible upon palbociclib withdrawal
Effect on cell cycle (MCF7 cells): complete cell cycle arrest
Reversibility of growth arrest (MCF7 cells; after withdrawal): reversible upon palbociclib withdrawal
Effect of single agent treatment on proliferation (CAMA1 cells): irreversible proliferation arrest
Reduction of ERα protein level [5]: about 50%
Reduction of ERα protein level [6]: about 50%
% TGI Delta [7]: 43.7%
% TGI Delta ([7]; listed as palbociclib): ~ 40%
Mean ± SEM (day 21) ([7]; PDX ST340, tumor volume (mm^3)): 1051.4 ± 134
